# According to article PMC12356476, “Transferrin conjugated pH/NIR-responsive black phosphorus nanoplatform: A novel multimodal approach for breast cancer theranostics” (International Journal of Pharmaceutics: X, 2025):
# What was measured:
# [1] = In vivo pharmacokinetics after i.v. injection; settings: 5 mg/kg DOX equivalent, BALB/c mice, plasma, Mean ± SD, n = 3
# Description: Female BALB/c mice (6–8 weeks old, 18–25 g) were obtained from a certified animal supplier and used for the study. Prior to the start of the experiment, all animals were housed under standard laboratory conditions (12-h light/dark cycle, temperature 22 ± 2 °C, relative humidity 50–60 %) with ad libitum access to food and water. A two-week acclimatization period was provided to allow the animals to adjust to the laboratory environment. […] Mice were randomly assigned to experimental groups (n = 3 per group), and all efforts were made to minimize suffering. The allocation and data collection were conducted in a blinded manner wherever applicable. No animals were excluded from the analysis unless stated otherwise.
# Blood sample was collected in EDTA solution containing tubes at intervals ranging from 5 min to 48 h post-administration and then centrifuged to separate the plasma ([Zeng et al., 2019]).
# [2] = test system: chorioallantoic membrane (CAM) of fertilized chicken eggs; assay: Chorioallantoic membrane (CAM) assay; type: in vivo; settings: 200 μL applied on day 8, observed at 8 and 24 h; DOX equivalent 200 μg
# Description: The CAM assay is a method used to assess the effects of chemical agents/formulations on the developing, highly vascularized CAM. Fertilized chicken eggs were obtained, disinfected with 70 % ethanol, and incubated in a humidified environment. The eggs were kept horizontal and regularly rotated. […] Lenalidomide was considered as positive and normal saline (NS) as negative control. Following application, the egg's cavity was resealed with scotch tape and returned to the incubator. Changes in the blood vessel morphology were examined at 8 and 24 h after incubation ([Raychaudhuri et al., 2021]).
# [3] = test system: 4 T1-breast tumour bearing BALB/c mice; assay: Histopathological analysis (H&E) of tumour tissues and other organs; type: in vivo; set-up: key to Tumour cells / Necrosed area / Malignant features like nuclear pleomorphism, hyperchromatism / inflammation / Muscle invasion: -: Nil; + few; ++ Many; +++ Abundant; settings: for Malignant features like nuclear pleomorphism, hyperchromatism / Mitotic count/10HPF / Muscle invasion / Necrosed area / Tumour cells / inflammation: tumour tissue, 14 days
# Description: (§1) On the last day of the treatment (Day 14), the BALB/c mice were euthanized by cervical dislocation and major organs were collected, washed and fixed with 4 % paraformaldehyde for Hematoxylin and Eosin (H&E) staining.
# Three BALB/c mice from each group were sacrificed after 14 days of treatment. The tissues (liver, spleen, lung, heart, kidney, and breast tumour) were isolated and fixed with 10 % formalin for 24 to 48 h. The tissue slides were examined using the LX-500 LED trinocular Research microscope, and pictures were captured using the MiaCam CMOS AR 6pro microscope camera coupled to image AR pro software. The slides were graded according to tumour cells, necrosed areas, malignant features like nuclear pleomorphism and hyperchromatism, inflammation, muscle invasion and mitotic count counted in 10 consecutive high-power fields (HPFs).
# 4 T1 cells [4] = assay: Cellular uptake by flow cytometry; type: cell-based, murine; settings: ~5 μg/mL, no irradiation
# Description: To understand the cellular uptake of nanoformulations, flow cytometry was employed. 4 T1 cells were seeded into 6-well plates and allowed to adhere for 24 h prior to treatment. […] Followed by the removal of culture medium after 2 h of treatment, test samples were added, and the laser groups were exposed to NIR-II 808 nm laser for 5 min and kept in incubator for 2 h. The plates were taken and added with trypsin for the detachment of 4 T1 cells. It was then collected, centrifuged to separate free DOX and BP-based nanoformulation, and analyzed using a flow cytometer (BD Accuri). Untreated 4 T1 cells were used as a control group.
# 4 T1 cells [5] = assay: MTT cytotoxicity assay without irradiation; type: cell-based, murine; settings: 4 T1 tumour cellular toxicity after 48 h
# Description: The 4 T1 cell line, a murine breast tumour cell line derived from BALB/cf3H mice, was obtained from Elabsciences, Inc. The cytotoxicity of BP-based nanoformulation were evaluated using MTT assay. […] After 48 h, media was discarded and added with 50 μL of MTT reagent (2 mg/ml). The samples were then kept for 4 h of incubation and added with 50 μL DMSO to solubilize the formazan crystals. OD (optical density) was evaluated at 540 nm in a microplate reader (ELx800). Absorbance data were observed, and percentage tumour cell growth inhibition was measured using the following formula: Percentage growth inhibition=Absorbance of Blank−Absorbance of test/Absorbance of BlankX100
# [6] = test system: 4T1 tumour bearing BALB/c mice; assay: Blood (haematological) parameters estimation; type: in vivo
# Description: A total of about 100 μL of blood was collected from the retroorbital route and collected into a tube with 10 μL of EDTA for a complete blood count such as RBC, WBC, platelets and hemoglobin analysis using Nihon Kohden blood analyzer (celltac alpha-MEK-6550, India).
# 4 T1 cells [7] = assay: In vitro PTT study (MTT with 808 nm NIR irradiation); type: cell-based, murine; settings: 4 T1 tumour cellular toxicity after 48 h; 808 nm laser 1.0 W/cm^2 for 10 min
# Description: Based on the results of cytotoxicity in 4 T1 cells produced by the test compounds, five concentrations were selected (100, 10, 1, 0.1, 0.001) to evaluate the extent of cytotoxicity in the presence of NIR radiation of 808 nm. 4 T1 cell line was seeded and incubated for 24 h. After refreshing the medium, the wells were added with samples at 37 °C for 4 h, and irradiated with 808 nm laser (1.0 W/cm^2) for 10 mins incubated till 48 h ([Phan et al., 2017]; [Xu et al., 2021]).
# Absorbance data were observed, and percentage tumour cell growth inhibition was measured using the following formula: Percentage growth inhibition=Absorbance of Blank−Absorbance of test/Absorbance of BlankX100
# [8] = test system: 4 T1-breast tumour bearing BALB/c mice; assay: Pharmacodynamic study (antitumour efficacy); type: in vivo; settings: i.v., 5 mg/kg eq. to DOX, 14 days
# Description: Female BALB/c mice were given a subcutaneous injection of 4 T1 cells (1.5 × 10^6 cells) in 100 μL of cold PBS, into the dorsal flank. The breast tumour appeared in 10–14 days while the mice were under close observation. Using a vernier caliper, the length and width were measured, and the tumour volume was measured. When the tumour volume reached about 75 to 100 mm^3, the mice were grouped randomly to 10 groups (n = 3):
# Group I: Saline (i v injection).
# Group II: Saline + NIR (i v injection).
# Group III: BPNSs (Dose: 5 mg/Kg) (i v injection).
# Group IV: BPNSs + NIR (Dose: 5 mg/Kg) (i v injection).
# After 2 h of injection, the laser irradiation groups were exposed to 808 nm NIR laser (1 W/cm^2) for 5 min. The starting day of the treatment was considered as 0th day and checked for body weight in every day and tumour volume in every 2 days. The following equation was used for the measurement of tumour volume (V): Volumemm^3=Width^2XLength/2
# as §1
# [9] = test system: 4 T1-breast tumour bearing BALB/c mice; assay: Biodistribution study by in vivo fluorescence imaging; settings: i.v., imaging 0.5 to 36 h post-injection
# From the text: In vivo biodistribution study of plain DOX, and BP-DOX@PDA-TF were monitored with an in vivo imaging system. […] Using IVIS® containing 620 nm and 780 nm filters respectively for excitation and emission, tumour accumulation trends were examined across various time periods following injection.
# [10] = after 14 days of treatment and NIR Irradiation
# [11] = after 14 days of treatment, no NIR irradiation
structure (smiles),measurement,setting,value
"COc1cccc2c1C(=O)c1c(O)c3c(c(O)c1C2=O)C[C@@](O)(C(=O)CO)C[C@@H]3O[C@H]1C[C@H](N)[C@H](O)[C@H](C)O1 [DOX, Doxorubicin]",AUC(0-t),[1],2976.15 ± 1191.277 ng·h/mL
same,AUC(0-∞),[1],3168.98 ± 1086.246 ng·h/mL
same,Cmax,[1],469.73 ± 93.78 ng/mL
same,Ke,[1],0.141 ± 0.05 h⁻¹
same,T max,[1],4.98 ± 0 min
same,t1/2,[1],5.47 ± 2.15 h
same,"toxicity to the CAM (coagulation, hemorrhage, vascular morphology, embryotoxicity)",[2],"notable sign of toxicity such as coagulation, bleeding, and embryo toxicity"
same,liver pathology,"[3]; H&E, 14 days of treatment",severe hypertrophy and liver congestion
same,"Malignant features like nuclear pleomorphism, hyperchromatism",[3]; NIR irradiated,+++
same,Mitotic count/10HPF,[3]; NIR irradiated,23 /10HPF
same,Muscle invasion,[3]; NIR irradiated,-
same,Necrosed area,[3]; NIR irradiated,+++
same,Tumour cells,[3]; NIR irradiated,+++
same,inflammation,[3]; NIR irradiated,-
same,"Malignant features like nuclear pleomorphism, hyperchromatism",[3]; NIR non-irradiated,++
same,Mitotic count/10HPF,[3]; NIR non-irradiated,4 /10HPF
same,Muscle invasion,[3]; NIR non-irradiated,-
same,Necrosed area,[3]; NIR non-irradiated,-
same,Tumour cells,[3]; NIR non-irradiated,+
same,inflammation,[3]; NIR non-irradiated,+++
same,cellular uptake (DOX fluorescence intensity),4 T1 cells [4],greater fluorescence intensity than BP-based NPs
same,"IC50 value, Non NIR Irradiated",4 T1 cells [5],2.84 µg/mL
same,HCT,[6]; [10],46.76±4.31%
same,HGB,[6]; [10],13.88 ± 1.28 g/dL
same,MCH,[6]; [10],16.35 ± 1.51 pg
same,MCV,[6]; [10],50.93 ± 3.10 fL
same,MPV,[6]; [10],6.39 ± 0.59 fL
same,PDW,[6]; [10],14.34 ± 1.32 fL
same,PLT,[6]; [10],924.2±85.27 ×10^3/µL
same,RBC,[6]; [10],7.8±1.31 ×10^6/µL
same,RDW‐CV,[6]; [10],13.61±1.26%
same,RDW‐SD,[6]; [10],35.71 ± 3.29 fL
same,WBC,[6]; [10],8.77±0.81 10^3/µL
same,HCT,[6]; [11],42.69±4.36%
same,HGB,[6]; [11],14.57 ± 0.42 g/dL
same,MCH,[6]; [11],16.27 ± 1.64 pg
same,MCV,[6]; [11],52.77 ± 4.81 fL
same,MPV,[6]; [11],6.37 ± 1.21 fL
same,PDW,[6]; [11],14.77 ± 2.06 fL
same,PLT,[6]; [11],940±75.19 ×10^3/µL
same,RBC,[6]; [11],9.39±1.2 ×10^6/µL
same,RDW‐CV,[6]; [11],13.77±0.38%
same,RDW‐SD,[6]; [11],38.17 ± 3.09 fL
same,WBC,[6]; [11],9.73±1.5 10^3/µL
same,"IC50 value, NIR Irradiated",4 T1 cells [7],1.58 µg/mL
same,breast tumour growth suppression,[8],failed to efficiently suppress the breast tumour growth
same,fluorescence signal of DOX at the tumour region,[9],significantly reduced signal
